One assay relates to C2C12 myotubes. In words: Glucose uptake assay (3H-deoxyglucose) in C2C12 myotubes. Type of assay: cell-based, mouse. Conditions: 10 nM. As to the method: A. ULMA enhances glucose uptake in C2C12 myotubes. C2C12 myotubes in 24 well plates were treated with vehicle (DMSO) or 10 nM ULMA and glucose uptake assay was performed in presence or absence of 100 nM insulin. Data is mean±SEM of six independent experiments performed in triplicates. *p<0.05, **p<0.01, ***p<0.001 as determined by two tailed unpaired student's t-test.
C. siAdipoR1 eliminates ULMA induction of glucose uptake. C2C12 myotubes were transfected with nonsilencing siC or siAdipoR1. 72 h after transfection, cells were treated for 24 h with 10 nM ULMA and glucose uptake assay was performed. Data is mean±SEM of three independent experiments performed in triplicates. ***p<0.001 as determined by two tailed unpaired student's t-test.
Adiponectin is known to enhance glucose uptake and fatty acid oxidation in skeletal muscle and myotubes (T. Kadowaki, T. Yamauchi, N. Kubota, K. Hara, K. Ueki, K. Tobe. J Clin Invest. 116(7): 1784-1792. 2006; T. Yamauchi, J. Kamon, Y. Ito, A. Tsuchida, T. Yokomizok, S. Kita, T. Sugiyama, M. Miyagishi, K. Hara, M. Tsunodaq, K. Murakamiq, T. Ohteki, S. Uchida, S. Takekawa, H. Waki, N. H. Tsuno, Y. Shibata, Y. Terauchi, P. Froguel, K. Tobe, S. Koyasu, K. Taira, T. Kitamura, T. Shimizuk, R. Nagai, T. Kadowaki. Nature. 423(6941):762-769. 2003). Therefore the ability of ULMA to influence insulin-dependent and independent glucose uptake and fatty acid oxidation was investigated in C2C12 myotubes. […] Subsequently, the cells were lysed in 100 μl 0.5N NaOH and 5 μl lysate was used for protein concentration determination, and rest of the lysate was used to measure cellular radioactivity in a beta-counter (Beckman Coulter). […] Radioactivity that had become adsorbed onto the filter discs was then quantified by liquid scintillation counting in a beta-counter (Beckman Coulter). The cells were lysed with 200 μl 0.5N NaOH and 5 μl of the lysate was used for protein estimation using Bradford assay and the radioactivity was normalized with the protein content.

Another assay relates to db/db mice. As to the kind of experiment: Body weight of db/db mice. It counts as in vivo, mouse. As to conditions: 5 mg/kg ULMA for 15 d. As to the method:
8 week old db/db mice were treated with vehicle (V; 1% gum acacia) or with 5 mg/kg ULMA for 15 days and the body weights were measured on 0th, 7th, 10th, or 15th day of treatment and plotted. ** p<0.01, n=6.
8 week old female db/db mice (n=6) weighing 40-50 g were divided into 2 groups and maintained as above. Control groups received vehicle (1% gum acacia) and ULMA groups received 5 mg/kg bw ULMA in 1% gum acacia for […]. Body weight and blood glucose were measured at the beginning and end of the studies.

Structures are written as SMILES.

With `O=C1c2c(cc(O)c([C@@H]3O[C@H](CO)[C@@H](O)[C@H](O)[C@H]3O)c2O)O[C@@H](c2ccc(O)c(O)c2)[C@@H]1O` [ULMA, (2S,3S)-(+)-3′,4′,5,7-tetrahydroxydihydroflavonol-6-C-β-D-glucopyranoside], the “ULMA-induced glucose uptake with siAdipoR1 (not siC)” value in the assay with C2C12 myotubes (24 h, 72 h after siRNA transfection) is “completely eliminated”. Further, the “glucose uptake in absence of insulin” value in the assay with C2C12 myotubes (24 hours) is “enhanced”. The “glucose uptake in presence of insulin” value in the assay with C2C12 myotubes (24 hours, 100 nM insulin 20 min) was “enhanced”. The “body weight compared to vehicle treated control mice” value in the assay with db/db mice is on record as “significantly reduced body weight”.
